Source: patent US5650394A, “Use of urinastatin-like compounds to prevent premature delivery” (Adeza Biomedical, priority 1993, dated 1997)

B1: urinastatin (protein, UniProt P02760 206-352, looked up)
Inter-alpha-trypsin inhibitor …: AVLPQEEEGSGGGQLVTEVTKKEDSCQLGYSAGPCMGMTSRYFYNGTSMACETFQYGGCMGNGNNFVTEKECLQTCRTVAACNLPIVRGPCRAFIQLWAFDAVKGKCVLFPYGGCQGNGNKFYSEKECREYCGVPGDGDEELLRFSN
modifications: Inter-alpha-trypsin inhibitor light chain
notes: glycoprotein of less than about 67 kD purified from human urine

How the values were obtained:
[1] = cited from earlier work; for time required for the number of uterine contractions (UC) to decrease to less than 1 per 30 minutes: 24th-35th weeks of pregnancy, tocolysis index 3-4, no PROM
[2] = Example 2 clinical comparison of regimens in 168 patients with imminent premature delivery; assay type: in vivo, human
Protocol: 168 patients in their 24th to 35 week of pregnancy were diagnosed with imminent premature delivery. The diagnosis of imminent premature delivery was based on a tocolysis index of 2 or greater. Factors of cervical dilation, ruptured membranes, uterine activity and vaginal bleeding were considered for the tocolysis index. The index is the sum of these points.
A number of regimens were compared. Group 1 received ritodrine intravenous infusion at 50-300 μg per day. Groups 2 and 3 were given daily urinastatin suppositories containing 5000 units and 1000 units, respectively. Group 4 received IV ritodrine at 50-300 μg per day and one 1000 unit urinastatin suppository per day. Group 5 received IV ritodrine at 50-300 μg per day, one 1000 unit urinastatin suppository per day, and cephalosporin. The patients were treated until they delivered.
The tocolysis index immediately before the start of treatment varied from 2-8. Elastase levels obtained from specimen of endocervical secretions were determined at admission to the study. "Hours to Neg UA", or the time until the number of uterine contractions in 30 minutes decreased to one or less, was reported. "Recur UA", or the proportion of women experiencing recurrence of at least one uterine contraction every 30 minutes after therapy lasting 4 days or longer was discontinued also was observed. "EGA Toco" is the estimated gestational age at the beginning of therapy. "EGA Del" is the estimated gestational age at delivery. The "interval" is the number of weeks between EGA Toco and EGA Del. "PTD<37 Wks" is the number of preterm births before 37 weeks. "PTD<34 Wks" is the number of preterm births before 34 weeks, or seriously premature infants.

granulocyte elastase = conditions: patients treated with urinastatin (groups B, C and D); cited from earlier work

Molecule	patients with recurrence of UC after therapy was discontinued ([1]; therapy discontinued when UC had been depressed for 4 days)	time required for the number of uterine contractions (UC) to decrease to less than 1 per 30 minutes ([1]; women)	women with premature deliveries ([1]; women, 24th-35th weeks, tocolysis index 3-4) [%]	preterm deliveries of less than 34 wk, share of all deliveries ([2]; PTD<34 Wks)	preterm deliveries of less than 37 wk, share of all deliveries ([2]; PTD<37 Wks) [%]	rate of recurrence of uterine activity ([2]; in spite of continuous administration of the drug)	Hours to Neg UA: time until uterine contractions in 30 minutes decreased to one or less ([2]; study average 3.1 hr) [h]	premature deliveries (number of patients) ([1]; groups B and D had 9 and 8 patients, group C 14)	elastase in vaginal secretions (granulocyte elastase)
CC(NCCc1ccc(O)cc1)C(O)c1ccc(O)cc1 (stereo not shown) [ritodrine]	Approximately 60%	about an hour	25	approximately 21%	~42	over 30%	1.4	–	–
B1	–	about 6 hours	–	–	–	–	–	no premature deliveries	decreased
